Reference: paper PMC8536124 (International Journal of Molecular Sciences, 2021)
Where two headings read alike, the source gives them in different places.

How the values were obtained:
[1] = test system: HL-60(TB); assay: NCI-60 screening (SRB); type: cell-based, human; details: HL-60(TB), five-dose
[2] = test system: A549/ATCC; assay: NCI-60 screening (SRB); type: cell-based, human; details: five-dose
[3] = test system: EKVX; assay: NCI-60 screening (SRB); type: cell-based, human; details: five-dose
[4] = test system: NCI-H226; assay: NCI-60 screening (SRB); type: cell-based, human; details: five-dose
[5] = test system: HCT-15; assay: NCI-60 screening (SRB); type: cell-based, human; details: five-dose
[6] = test system: HT29; assay: NCI-60 screening (SRB); type: cell-based, human
[7] = test system: KM12; assay: NCI-60 screening (SRB); type: cell-based, human; details: five-dose
[8] = test system: SW-620; assay: NCI-60 screening (SRB); type: cell-based, human; details: five-dose
[9] = test system: SF-268; assay: NCI-60 screening (SRB); type: cell-based, human; details: five-dose
[10] = test system: SNB-75; assay: NCI-60 screening (SRB); type: cell-based, human; details: five-dose
[11] = test system: SK-MEL-28; assay: NCI-60 screening (SRB); type: cell-based, human
[12] = test system: A498; assay: NCI-60 screening (SRB); type: cell-based, human; details: A498, five-dose
[13] = test system: ACHN; assay: NCI-60 screening (SRB); type: cell-based, human; details: five-dose
[14] = test system: RXF 393; assay: NCI-60 screening (SRB); type: cell-based, human; details: five-dose
[15] = test system: NCI-60 cancer cell line panel; assay: NCI-60 screening (SRB), full panel; type: cell-based, human; details: for activity at 10 µM: 60 cell lines, 48 h
Excerpt: The experimental data allow the assessment of the cytostatic effect, indicated by growth inhibition values ranging between 0 and 100, as well as of the cytotoxic effect, indicated by negative values.
The mean GI50 (molar concentration of the compound that inhibits 50% net cell growth), TGI (molar concentration of the compound leading to the total inhibition), and LC50 (molar concentration of the compound leading to 50% net cell death (presented in negative logarithm)) values across each cell line are shown in Table 2.
The selectivity index (SI), calculated as the ratio between the full panel MG_MID60 (μM) of compounds 4, 6, and 9 by their respective subpanels MG_MID of the cell line (μM), was introduced as a quantification tool for the selectivity of each compound in terms of anticancer effect (Table 3).
Primary anticancer assays were performed according to the NCI protocol, as described elsewhere (see e.g., http://dtp.nci.nih.gov accessed on 1 November 2018). The compounds were added at a single concentration, and the cell cultures were incubated for 48 h. The end point determinations were made with a protein-binding dye, sulforhodamine B (SRB). […] The percentage of growth was evaluated spectrophotometrically versus controls not treated with test agents after 48 h exposure and using SRB protein assay to estimate cell viability or growth. Three antitumor activity dose-response parameters were calculated for each cell line. Furthermore, mean graph midpoints (MG_MID) were calculated for each of the parameters, giving an average activity parameter over all cell lines for the tested compound. For the MG_MID calculation, insensitive cell lines were included with the highest concentration tested.

[16] = test system: RPMI cells; assay: DAPI staining, nuclear morphology; type: cell-based, human; details: 24 h
Protocol: (§1) The cells were cultured in 24-well plates at 2 × 10^5 cells/well. Two samples (compounds 4 and 6) of three different concentrations (0.1, 1, and 5 μM) and three concentrations of DMSO (0.1, 1, 5 μM) were used to stimulate the cells. The immunofluorescent staining technique was performed according to the protocol in [92]. Thus, after 24 h of stimulation, the cells were fixed by adding 4% paraformaldehyde and incubating at room temperature for one hour. After fixation, cell permeability was performed with 2% Triton X solution in phosphate-buffered saline (PBS). After 30 min of incubation at room temperature, blocking of permeabilization was performed with 0.01% Triton X solution and incubation at RT for one hour. DAPI staining was used in a concentration of 300 nM to visualize the nuclei. The cells were analyzed by fluorescence microscope at 40× magnification using CellSens V1.15 software (Olympus, Tokyo, Japan) and Image J software.

[17] = test system: SK-MEL-28 cells; assay: DAPI staining, nuclear morphology; type: cell-based, human; details: SK-MEL28, 24 h
Protocol: as §1

[18] = test system: chorioallantoic membrane; assay: HET-CAM irritation assay
Excerpt: In this assay, the irritation potential may range from 0 to 21, with 0 being non-irritant and 21 being the most irritant. […] The irritation score was established according to Luepke scale: 0–0.9 indicates non-irritant, 1–4.9 indicates weakly irritant, 5–8.9 indicates moderately irritant, while 9–21 means strongly irritant (Table 6) [88, 89].
The in vivo Hen’s Egg Chorioallantoic Membrane Test (HET-CAM) assay determines a potential irritant effect on the vascular plexus of the chorioallantoic membrane [94]. The HET-CAM method was carried out following ICCVAM recommendations published in November 2016 in Appendix G and adapted to our conditions [88, 95, 96]. Thus, a volume of 300 µL of control or test solution was applied and the modifications produced at the CAM level were monitored by means of stereomicroscopy (Discovery 8 Stereomicroscope, Zeiss), registering significant images (Axio CAM 105 color, Zeiss), before application after 5 min of contact with the samples. All images were processed using Zeiss ZEN software, Gimp 2.8, and ImageJ software.
Negative control was represented by distilled water and solvent control DMSO 0.5%, and positive control by sodium lauryl sulphate (SLS) 0.5% in distillate water. The test substances were tested in concentrations of 1 µM.
Finally, the following reactions were: hemorrhage—H (blood vessel bleeding), vascular lysis—L (disintegration of blood vessels), coagulation—C (intra- or extra-vascular protein denaturizing). A variety of analysis methods may be used to assess irritancy potential of test substances. One analysis method that has been used extensively is an irritation score (IS). The formula used to generate an IS value is:(1) IS=5×301−Sec H/300+7×300−Sec L/300+9×301−Sec C/300 where: H = hemorrhage; L = vessel lysis; C = coagulation; hemorrhage time (Sec H) = onset of hemorrhage reactions on CAM (in seconds); lysis time (Sec L) = onset of vessel lysis on CAM (in seconds); coagulation time (Sec C) = onset of coagulation formation on CAM (in seconds). Means values are obtained. […] The IS values range on a scale between 0 and 21.

[19] = Compound stability in cell culture media (TLC); details: 5 μM in DMEM and EMEM, 72 h
Protocol: Prior to this assay, compound stability in cell culture media was evaluated after 72 h, using a thin-layer chromatography (TLC)-based protocol, with the necessary modifications [57, 58].
The stability of the assessed compounds in the culture media was evaluated by thin layer chromatography (TLC), this representing a viable and easy to achieve technique for this specific endpoint [57, 58]. […] The solutions were incubated for 72 h, after which the medium was extracted in CHCl3. […] The plate was successively developed with I2 vapors, UV light, and bromocresol green to determine various additional spots corresponding to some decomposition byproducts.

[20] = Homo sapiens, read-out: LC50 (the source's name)

For `CCN1CCN(C(=O)[C@]23CC[C@@H](C)[C@H](C)[C@H]2C2=CC[C@@H]4[C@@]5(C)CCC(=O)C(C)(C)[C@@H]5CC[C@@]4(C)[C@]2(C)CC3)CC1` [Compound 4, N-(3-oxo-ursan-12-en-28-oyl)-ethylpiperazine], which TGI [1] is on record?
Its TGI is 2740 nM.

And the GI50 ([1]; Homo sapiens)?
Its GI50 is 976 nM.

And the CC50 [1, 20]?
Its CC50 is greater than 50000 nM.

What about the GI50 ([2]; Homo sapiens) of the same molecule?
The GI50 was 1470 nM.

And the CC50 [2, 20]?
Its CC50 is 21800 nM.

And the TGI [2]?
Its TGI is 5980 nM.

What about the GI50 ([3]; Homo sapiens) of the same molecule?
Its GI50 is 916 nM.

What about the LC50 ([3]; Homo sapiens) of the same molecule?
The LC50 was 8950 nM.

What about the TGI [3] of the same molecule?
Its TGI is 2420 nM.

What about the GI50 ([4]; Homo sapiens) of the same molecule?
Its GI50 is 1780 nM.

And the CC50 [4, 20]?
The CC50 was 28700 nM.

What about the TGI [4] of the same molecule?
The TGI was 7010 nM.

What about the GI50 ([5]; Homo sapiens) of the same molecule?
Its GI50 is 977 nM.

And the CC50 [5, 20]?
Its CC50 is 7410 nM.

And the TGI [5]?
The TGI was 2390 nM.

And the GI50 ([6]; Homo sapiens, HT-29, five-dose)?
Its GI50 is 913 nM.

What about the CC50 ([6]; Homo sapiens, HT-29, five-dose, read-out: LC50 (the source's name)) of the same molecule?
The CC50 was 4590 nM.

And the TGI ([6]; five-dose)?
The TGI was 2050 nM.

What about the GI50 ([7]; Homo sapiens) of the same molecule?
Its GI50 is 1030 nM.

What about the CC50 [7, 20] of the same molecule?
The CC50 was 4790 nM.

And the TGI [7]?
Its TGI is 2220 nM.

What about the GI50 ([8]; Homo sapiens) of the same molecule?
Its GI50 is 902 nM.

And the CC50 [8, 20]?
Its CC50 is 3440 nM.

What about the TGI [8] of the same molecule?
The TGI was 1760 nM.

What about the GI50 ([9]; Homo sapiens) of the same molecule?
The GI50 was 1770 nM.

And the CC50 [9, 20]?
The CC50 was 24600 nM.

And the TGI [9]?
Its TGI is 6490 nM.

What about the GI50 ([10]; Homo sapiens) of the same molecule?
The GI50 was 1030 nM.

And the CC50 [10, 20]?
Its CC50 is 17200 nM.

What about the TGI [10] of the same molecule?
The TGI was 3820 nM.

What about the Growth % ([11]; 1 dose 10 µM) of the same molecule?
The Growth % was −64.66%.

And the GI50 ([11]; Homo sapiens, five-dose)?
Its GI50 is 889 nM.

And the CC50 ([11]; Homo sapiens, five-dose, read-out: LC50 (the source's name))?
Its CC50 is 3270 nM.

And the TGI ([11]; five-dose)?
The TGI was 1700 nM.

What about the TGI [12] of the same molecule?
The TGI was 2420 nM.

What about the GI50 ([12]; Homo sapiens) of the same molecule?
The GI50 was 927 nM.

And the CC50 [12, 20]?
Its CC50 is 7920 nM.

And the GI50 ([13]; Homo sapiens)?
Its GI50 is 1330 nM.

And the LC50 ([13]; Homo sapiens)?
Its LC50 is 14800 nM.

What about the TGI [13] of the same molecule?
Its TGI is 4380 nM.

What about the GI50 ([14]; Homo sapiens) of the same molecule?
The GI50 was 822 nM.

What about the CC50 [14, 20] of the same molecule?
Its CC50 is 3690 nM.

What about the TGI [14] of the same molecule?
Its TGI is 1740 nM.

What about the “Positive Cytostatic Effect (cell lines with percent growth 0 to 50 / total)” value ([15]; 1 dose 10 µM) of the same molecule?
Its value is 60/60.

What about the “Positive Cytotoxic Effect (cell lines with percent growth <0 / total)” value ([15]; 1 dose 10 µM) of the same molecule?
The value was 60/60.

And the GI50 ([15]; Homo sapiens, five-dose, bound, read-out: GI50 against all human tumor cells)?
Its GI50 is less than 2000 nM.

And the GI50 ([15]; Homo sapiens, five-dose, read-out: GI50 against the most sensitive cell lines)?
The GI50 was 700 to 990 nM.

And the GI50 ([15]; Homo sapiens, mean graph midpoint, full panel, five-dose, read-out: GI50 MG_MID60)?
Its GI50 is 1030 nM.

What about the CC50 ([15]; Homo sapiens, mean graph midpoint, full panel, five-dose, read-out: LC50 MG_MID60) of the same molecule?
The CC50 was 12300 nM.

And the activity at 10 µM ([15]; Homo sapiens, 1 dose 10 µM, read-out: Mean Growth, %)?
The activity at 10 µM was -10.5%.

And the activity at 10 µM ([15]; Homo sapiens, 1 dose 10 µM, read-out: Range of Growth, %)?
The activity at 10 µM was -85.7 to -41.5%.

And the selectivity class ([15]; all GI50, TGI, and LC50 levels)?
Its selectivity class is “nonselective (ratios below 3 indicate nonselective compounds)”.

And the “TGI MG_MID60” value ([15]; mean graph midpoint, full panel, five-dose)?
Its value is 2740 nM.

What about the “nuclear morphology (DAPI)” value ([16]; 0.1 µM) of the same molecule?
Its value is “massive chromatin condensation”.

What about the “nuclear morphology (DAPI)” value ([16]; 1 µM) of the same molecule?
The value was “visible nuclear fragmentation”.

And the “nuclear morphology (DAPI)” value ([16]; 5 µM (highest concentration))?
Its value is “blebbing of the nuclear membrane”.

And the “nuclear morphology (DAPI)” value ([17]; 0.1 μM)?
Its value is “intense condensation of the cell nuclei”.

And the “nuclear morphology (DAPI)” value ([17]; 1 μM)?
The value was “chromatin condensation is accompanied by the formation of apoptotic bodies”.

What about the “nuclear morphology (DAPI)” value ([17]; 5 μM) of the same molecule?
The value was “incipient nuclear fragmentation”.

What about the “Irritation Score” value ([18]; 300 µL, 5 min, test compounds 1 µM, scale 0 to 21) of the same molecule?
Its value is 0.

And the “Type of Effect” value ([18]; Luepke scale)?
Its value is “Non-irritant”.

And the “stability in cell culture media (TLC)” value [19]?
Its value is “no signs of decomposition”.
